# Results taken from ChEMBL document CHEMBL1201862, “PubChem BioAssay data set” (2004).
#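 48-hour exposure; five concentrations; linearly interpolated endpoints. GI50 = concentration required for 50% inhibition of growth.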 Calls of active or inactive are those of the source. Cut-off read from the data, not from the text of the source: active = GI50 up to about 1.1 µM and inactive = higher.
# Key:
# Assay in all cases: DTP human tumour cell line panel, 48 h
# SK-MEL-2 = test system: SK-MEL-2
# NCI-H460 = test system: NCI-H460
# SNB-19 = test system: SNB-19
# BT-549 = test system: BT-549
# A498 = test system: A498
# KM12 = test system: KM12
# OVCAR-5 = test system: OVCAR-5
# M14 = test system: M14
# MDA-MB-231 = test system: MDA-MB-231
# DU-145 = test system: DU-145
# RXF 393 = test system: RXF 393
# SW-620 = test system: SW-620
# MDA-MB-435 = test system: MDA-MB-435
# NCI/ADR-RES = test system: NCI/ADR-RES
# K562 = test system: K562
# HCT-15 = test system: HCT-15
# PC-3 = test system: PC-3
# HOP-92 = test system: HOP-92
# COLO 205 = test system: COLO 205
# HCT-116 = test system: HCT-116
Compound,GI50 (SK-MEL-2),GI50 (NCI-H460),GI50 (SNB-19),GI50 (BT-549),GI50 (A498),GI50 (KM12),GI50 (OVCAR-5),GI50 (M14),GI50 (MDA-MB-231),GI50 (DU-145),GI50 (RXF 393),GI50 (SW-620),GI50 (MDA-MB-435),GI50 (NCI/ADR-RES),GI50 (K562),GI50 (HCT-15) [µM],GI50 (PC-3),GI50 (HOP-92),GI50 (COLO 205),GI50 (HCT-116)
C=C(C)CNCC(=C)C.Oc1c(Cl)c(Cl)c(Cl)c(Cl)c1Cl,17.7 µM (inactive),> 100 µM (inactive),32.1 µM (inactive),25.4 µM (inactive),20.4 µM (inactive),20.4 µM (inactive),17.1 µM (inactive),26.7 µM (inactive),15.5 µM (inactive),15.2 µM (inactive),20 µM (inactive),31.1 µM (inactive),23.7 µM (inactive),23.8 µM (inactive),32.4 µM (inactive),20.9,22.8 µM (inactive),24.4 µM (inactive),22.7 µM (inactive),16.4 µM (inactive)
O=C(O)CNC(=O)c1ccc([As](=O)(O)O)cc1,> 100 µM (inactive),> 100 µM (inactive),> 100 µM (inactive),> 100 µM (inactive),> 100 µM (inactive),> 100 µM (inactive),> 100 µM (inactive),> 100 µM (inactive),> 100 µM (inactive),> 100 µM (inactive),> 100 µM (inactive),> 100 µM (inactive),> 100 µM (inactive),> 100 µM (inactive),> 100 µM (inactive),> 100,> 100 µM (inactive),> 100 µM (inactive),> 100 µM (inactive),> 100 µM (inactive)
COc1ccc(/C=C/c2nccc3ccccc23)cc1OC,> 10 µM (inactive),> 10 µM (inactive),> 10 µM (inactive),> 10 µM (inactive),9.73 µM (inactive),8.13 µM (inactive),> 10 µM (inactive),> 10 µM (inactive),2.77 µM (inactive),> 10 µM (inactive),> 10 µM (inactive),> 10 µM (inactive),6.64 µM (inactive),9.38 µM (inactive),5.5 µM (inactive),> 10,> 10 µM (inactive),6.17 µM (inactive),> 10 µM (inactive),5.9 µM (inactive)
CC(C)(C)OC(=O)[C@@H]1CCC(=S)N1Cc1ccccc1,> 100 µM (inactive),> 100 µM (inactive),> 100 µM (inactive),71.8 µM (inactive),> 100 µM (inactive),> 100 µM (inactive),> 100 µM (inactive),> 100 µM (inactive),> 100 µM (inactive),> 100 µM (inactive),> 100 µM (inactive),> 100 µM (inactive),> 100 µM (inactive),> 100 µM (inactive),> 100 µM (inactive),> 100,> 100 µM (inactive),> 100 µM (inactive),> 100 µM (inactive),> 100 µM (inactive)
CCCCCCCCCCCCCC(=O)OCC(CCS(=O)(=O)O[C@H]1CC[C@@]2(C)C(=CC[C@@H]3C2CC[C@]2(C)C(=O)CCC32)C1)OC(=O)CCCCCCCCCCCCC (stereo not given in full),> 100 µM (inactive),> 100 µM (inactive),> 100 µM (inactive),> 100 µM (inactive),> 100 µM (inactive),> 100 µM (inactive),> 100 µM (inactive),> 100 µM (inactive),> 100 µM (inactive),> 100 µM (inactive),> 100 µM (inactive),> 100 µM (inactive),> 100 µM (inactive),> 100 µM (inactive),> 100 µM (inactive),> 100,> 100 µM (inactive),> 100 µM (inactive),> 100 µM (inactive),> 100 µM (inactive)
CC1OC23CCCCC2C(C#N)(C#N)C1(C#N)C(=N)O3 (stereo not given),19.9 µM (inactive),17.9 µM (inactive),22.8 µM (inactive),17.7 µM (inactive),27.2 µM (inactive),24.3 µM (inactive),22 µM (inactive),20.1 µM (inactive),15.7 µM (inactive),24.3 µM (inactive),19.7 µM (inactive),8.75 µM (inactive),20.8 µM (inactive),37.4 µM (inactive),13.7 µM (inactive),15.3,24.4 µM (inactive),13.8 µM (inactive),14.7 µM (inactive),16.6 µM (inactive)
Brc1ccc(C2CC3(c4ccccc4)ON=C(c4ccccc4)N3c3ccccc3S2)cc1 (stereo not given),> 100 µM (inactive),> 100 µM (inactive),> 100 µM (inactive),> 100 µM (inactive),> 100 µM (inactive),> 100 µM (inactive),> 100 µM (inactive),> 100 µM (inactive),> 100 µM (inactive),> 100 µM (inactive),> 100 µM (inactive),> 100 µM (inactive),> 100 µM (inactive),> 100 µM (inactive),> 100 µM (inactive),> 100,> 100 µM (inactive),> 100 µM (inactive),> 100 µM (inactive),5.87 µM (inactive)
C=CCCCCOC1C=CC(O)C(CO)O1 (stereo not given),> 100 µM (inactive),> 100 µM (inactive),> 100 µM (inactive),> 100 µM (inactive),> 100 µM (inactive),> 100 µM (inactive),> 100 µM (inactive),> 100 µM (inactive),> 100 µM (inactive),> 100 µM (inactive),> 100 µM (inactive),> 100 µM (inactive),> 100 µM (inactive),> 100 µM (inactive),> 100 µM (inactive),> 100,> 100 µM (inactive),> 100 µM (inactive),> 100 µM (inactive),> 100 µM (inactive)
COC(=O)NC(Nc1ccc(C)cc1)(C(F)(F)F)C(F)(F)F,> 100 µM (inactive),> 100 µM (inactive),> 100 µM (inactive),> 100 µM (inactive),> 100 µM (inactive),> 100 µM (inactive),> 100 µM (inactive),> 100 µM (inactive),> 100 µM (inactive),> 100 µM (inactive),0.172 µM (active),> 100 µM (inactive),> 100 µM (inactive),> 100 µM (inactive),> 100 µM (inactive),> 100,> 100 µM (inactive),> 100 µM (inactive),> 100 µM (inactive),> 100 µM (inactive)
Cn1c(=O)n2n(c1=O)C1C(=CC2)C2C=CC1n1c(=O)n(C)c(=O)n12 (stereo not given),> 100 µM (inactive),> 100 µM (inactive),> 100 µM (inactive),> 100 µM (inactive),> 100 µM (inactive),> 100 µM (inactive),> 100 µM (inactive),> 100 µM (inactive),> 100 µM (inactive),> 100 µM (inactive),> 100 µM (inactive),> 100 µM (inactive),> 100 µM (inactive),> 100 µM (inactive),> 100 µM (inactive),> 100,> 100 µM (inactive),> 100 µM (inactive),> 100 µM (inactive),> 100 µM (inactive)
O/N=C1\CCc2cc3c(cc21)CCC3,> 100 µM (inactive),> 100 µM (inactive),> 100 µM (inactive),> 100 µM (inactive),> 100 µM (inactive),> 100 µM (inactive),> 100 µM (inactive),> 100 µM (inactive),> 100 µM (inactive),> 100 µM (inactive),> 100 µM (inactive),> 100 µM (inactive),> 100 µM (inactive),> 100 µM (inactive),> 100 µM (inactive),> 100,> 100 µM (inactive),55.7 µM (inactive),> 100 µM (inactive),> 100 µM (inactive)
CSc1nc2c(c(N(C)C)n1)C=Nn1c(nc3ccccc31)S2,> 100 µM (inactive),89.1 µM (inactive),> 100 µM (inactive),95.9 µM (inactive),> 100 µM (inactive),> 100 µM (inactive),> 100 µM (inactive),> 100 µM (inactive),78.2 µM (inactive),78 µM (inactive),29 µM (inactive),> 100 µM (inactive),> 100 µM (inactive),> 100 µM (inactive),> 100 µM (inactive),> 100,> 100 µM (inactive),25.7 µM (inactive),> 100 µM (inactive),57.7 µM (inactive)
O=C1C(Cl)C(c2cc3cc(Br)ccc3nc2Cl)N1c1ccc(F)c(Cl)c1 (stereo not given),8.83 µM (inactive),11.7 µM (inactive),9.73 µM (inactive),7.52 µM (inactive),5.61 µM (inactive),3.21 µM (inactive),12 µM (inactive),9.42 µM (inactive),8.09 µM (inactive),8.02 µM (inactive),5.4 µM (inactive),5.98 µM (inactive),5.64 µM (inactive),5.57 µM (inactive),3.07 µM (inactive),6.44,3.59 µM (inactive),1.31 µM (inactive),6.62 µM (inactive),7.94 µM (inactive)
O=C(O)CO/N=C1/C(=C2/C(=O)Nc3ccccc32)Nc2ccccc21,25.8 µM (inactive),72.8 µM (inactive),> 100 µM (inactive),51.9 µM (inactive),61.8 µM (inactive),2.99 µM (inactive),> 100 µM (inactive),41.1 µM (inactive),62.8 µM (inactive),44.3 µM (inactive),19.5 µM (inactive),62.5 µM (inactive),37.9 µM (inactive),> 100 µM (inactive),79.8 µM (inactive),35.6,33.9 µM (inactive),37.9 µM (inactive),57.5 µM (inactive),39.6 µM (inactive)
